Laboratory results reported in patent US8501791B2, “1,2,4-thiadiazolium derivatives as melanocortin receptor modulators” (Ortho-McNeil Pharamaceutical, Inc., priority 2001, dated 2013).
Several values for one entry are separate records, joined by “and”; a condition that tells them apart may be missing. Equal entries are not always repeated.

Legend:
[1] = target: T1, melanocortin MC-4 receptor (Homo sapiens, UniProt P32245); experiment: Melanocortin MC-4 Receptor Binding Assay (SPA); settings: 125I-NDP-melanocyte stimulating hormone
T1 construct: purchased Receptor Biology Inc
T1 sequence (P32245 whole entry): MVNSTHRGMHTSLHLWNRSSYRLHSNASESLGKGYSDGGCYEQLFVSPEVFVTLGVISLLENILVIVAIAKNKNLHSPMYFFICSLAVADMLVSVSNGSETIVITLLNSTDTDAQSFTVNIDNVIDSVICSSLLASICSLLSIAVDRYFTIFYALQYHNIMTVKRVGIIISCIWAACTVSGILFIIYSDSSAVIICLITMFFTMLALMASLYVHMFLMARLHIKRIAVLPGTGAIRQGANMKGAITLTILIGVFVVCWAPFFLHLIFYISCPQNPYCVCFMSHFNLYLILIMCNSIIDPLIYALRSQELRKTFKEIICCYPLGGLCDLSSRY
Method: Radioactive ligand ^125I-NDP-melanocyte stimulating hormone [NEN, 2000 Ci/mmol] was added to each well (48.54 per well, […] final concentration). The plate was then sealed and let stand for 16 hr at 25° C. NDP-Melanocyte stimulating hormone peptide and α-melanocyte stimulating hormone peptide [purchased from Palomar Research Inc, 1 μM] were used as reference inhibitor compounds to define non-specific binding (N). Total binding (T) was defined using 30% DMSO-50 mM HEPES, pH 7.4 buffer. Bound radioactivity for each well (Y), measured at counts per minute (cpm) was measured in a TopCount [Packard, Calif.]. Percent inhibition was calculated as: […]

[2] = tested on: human skin transplanted to the SCID mouse; experiment: Human skin-SCID mouse chimera model, sebum production; assay type: in vivo, SCID mouse with human skin graft
Excerpt: Severe combined immunodeficient mice (SCID) provide an invaluable model for skin xenografting. These animals are devoid of both T and B cell immunity. Human skin grafts in SCID mice retain human cellular tissue components including skin immune cells, i.e. Langerhans cells, macrophages and lymphocytes and also part of the engrafted endothelium (Kaufman R., et al., Exp. Dermatol. 1993:2:209-216, 1993). These properties allow for the study of physiological and/or pathological responses of human skin cells to a test compound.
C.B-17 scid/scid mice (Taconic, Germantown, N.Y.) were used for grafting at 5-6 weeks of age. Full thickness human facial skin was shaved to ˜0.4 mm using a Forman Dermatome. The skin shavings were washed 3 times in antibiotics and antimycotics (penicillin, streptomycin, fungizone) (Life technologies) in Dulbecco's Modified Eagle Medium (DMEM, Life Technologies). Elliptical skin ˜2.0-2.5×1.0-1.5 was grafted onto the prepared graft bed and sutured using 4.0 silk. During surgical procedures the mice were anaesthetized using a mixture of Ketaset (0.16 mg/g body weight) and Rompun (8.0 μg/g body weight).
It is well accepted that the wound healing process of the transplanted skin in the SCID mouse takes one month, at which time the human skin can be used for experimental purposes. […] Maximum size of the glands was observed 3 month post transplantation. The glands retained their capability to produce human specific sebum and the glandular tissue expressed human specific markers including MC5-R. Since glands reached their maximum size at 2-3 month post transplantation the effects of inhibitors of sebum secretion was tested at this point.
Mice at 2-3 month post transplantation with human facial skin were used for the studies. The graft area was treated with the test compound at the desired concentration(s) dissolved in polyethylene glycol-ethanol (20 μl/2 cm^2). Controls were treated with vehicle alone. The test compounds were applied daily, excluding weekends. Sebum secretion was determined using Sebutape at 15 days and 30 days following treatment.
The termination of the experiment was determined by preliminary clinical evaluation of sebum production using SEBUTAPE. At this time human skin grafts were excised and representative samples were collected for histological evaluation. More particularly, 2 mm punch biopsies were prepared and used for evaluation of lipid synthesis and total lipid accumulation in the treated tissues.
The collected 2 mm punch biopsies were placed individually into 96 well plates in Krebs buffer and labeled with 10 μCi of ^14C acetate for 3 hours. Following this labeling period the samples were washed in medium and 5 biopsies pooled, weighed, and used for lipid extraction. The lipid extraction and analysis by HPTLC was the same as described for tissue culture derived cells. […]

[3] = tested on: human sebocytes; experiment: Sebaceous lipid synthesis by sebaceous cells (14C acetate, HPTLC); assay type: cell-based; settings: seven day treatment
Method: Semiconfluent cultures of 3T3 mouse fibroblasts (Swiss Albino mouse, ATCC CCL-92) were treated with mitomycin C (4 μg/ml) for 3 hours, trypsinized and seeded at a density of 2.5×10^5/9.5 cm^2 tissue culture plate in Dulbeccos Minimal Essential Medium (DMEM) containing 10% Colorado Calf Serum, PNC (100 U/ml), STM (100 μg/ml), L glutamine (0.3 mg/ml), sodium pyruvate (1 mM) and nonessential amino acids (100 μM). The cells were incubated at 37° C. for 24 hours prior to their use as a feeder layer for sebocytes.
Human sebocytes were isolated from Dermatome shavings of postoperative pieces of human skin at 0.4-0.8 mm depths (this part of the skin was previously shown to be enriched in sebaceous glands). […] Cells so obtained were filtered through nylon mesh (100μ pore size), centrifuged at 750 RPM, re-suspended in GM and counted. […]
Hormones, mixture of hormones i.e. bovine pituitary extract or compounds to be tested were added to the culture at the beginning of phase III. […] This method relies on visualization of neutral lipids by Nile red and quantitation by reading of fluorescence at 535 nm excitation, 580 nm emission using a plate reader. The lipid synthesis was evaluated by radioactive labeling using ^14C acetate and quantified by Bio Rad Phosphoimager (Molecular Imager, FX) using 4.1 Software. […]

[4] = tested on: Food-Deprived Rats (MC-4); experiment: Rodent feeding: food intake in food-deprived rats (MC-4); assay type: in vivo, rat; settings: 10 mg/kg, ip
Method: Male Long-Evans rats (180-200 grams) were housed individually and maintained on a once-a-day feeding schedule (i.e. 10 a.m. until 4 p.m.) for five days following quarantine to allow the animals to acclimate to feeding on powdered chow (#5002 PMI Certified Rodent Meal) during the allotted time. The chow was made available in an open jar, anchored in the cage by a wire, with a metal follower covering the food to minimize spillage. Water was available ad-libitum.
Animals were fasted for 18 hours prior to testing. At the end of the fasting period, animals were administered either a test compound or vehicle. Vehicle and test compound were administered either orally (5 mL/kg) 60 minutes prior to the experiment, subcutaneously (1 mL/kg) 30 minutes prior to the experiment, or intraperitoneally (1 mL/kg) 30 minutes prior to the experiment. Test compounds were administered orally as a suspension in aqueous 0.5% methylcellulose-0.4% Tween 80, or intraperitoneally as a solution or suspension in PEG 200; compound concentrations typically ranged from 1 mg/kg to 100 mg/kg, preferably from 10-30 mg/kg. Food intake was measured at 2, 4, and 6 hours after administration by weighing the special jar containing the food before the experiment and at the specified times. Upon completion of the experiment, all animals were given a one-week washout period before re-testing.

[5] = tested on: rabbit adipocytes; settings: read-out: EC50 lipolytic activity; cited from earlier work
[6] = tested on: facial nerve compression, whisker movement; experiment: In vivo facial nerve compression model; design: species or system rat; settings: positive control s.c., 70 ug/each 48 hr
Excerpt: The ability of test compound to provide neuro-protective or neuro-regenerative effects was investigated in a facial nerve compression model. Facial nerve motor axons arise exclusively from neurons within the pons in a well-defined nucleus. Facial nerve compression results in retrograde reactions proximal to the lesion site and Wallerian degeneration at its distal part, which causes diminished whisker movement on the lesioned side. […] The right facial nerve was exposed and compressed with forceps for 30 sec at its exit from the stylomastoid foramen. The left facial nerve was sham-operated and served as an internal control. […] After recovery from anesthesia, the rats were randomly divided into groups for dosing with vehicle, αMSH or test compound, with 6 animals per group. αMSH (s.c., 70 ug/each 48 hr) was used as a positive control. Test compounds were dosed p.o. at 20 mg/kg bid for 14 days. Restoration of whisker movement was monitored daily after the operation using two criteria: (1) frequency of whisker movement on the lesioned side relative to the opposite side (sham-operated) which served as the baseline control (2) semi-quantitative measurements (0 to 4+) on strength of the whisker muscles, characterized based on observation of the percentage of moved whiskers, muscle tone of whisker muscles, and the position of the nose. For all observations, the experimental design was blind to the behavioral observer. […] The recovery rate of the whisker movement was expressed as percentage of its own internal control (sham-operated), as listed in Table 8.

[7] = 30 Day Treatment, topical 0.01%
[8] = 30 Day Treatment, topical 0.05%
[9] = human sebaceous lipids, 11 Day Treatment, topical 0.01%
[10] = human sebaceous lipids, 11 Day Treatment, topical 0.1%
[11] = human sebaceous lipids, 11 Day Treatment, topical 0.5%

COc1ccccc1-[n+]1sc(Nc2ccc(Cl)cc2)nc1-c1ccc(C)cc1 [Compound 70]
IC50 [1]: 566 nM

COc1ccccc1-c1nc(Nc2ccccc2)s[n+]1-c1ccccc1OC.[Br-] [Compound 74, 2-(2-methoxyphenyl)-3-(2-methoxyphenyl)-5-phenylamino-[1,2,4]-thiadiazol-2-ium]
% Inh @ 0.01% Cholesterol Ester, Lipid Accumulation [2, 7]: 44% | % Inh @ 0.01% Cholesterol, Lipid Accumulation [2, 7]: 33% | % Inh @ 0.01% Cholesterol, Sebaceous Lipid Synthesis [2, 7]: 33% | % Inh @ 0.01% Squaline, Lipid Accumulation [2, 7]: 82% | % Inh @ 0.01% Squaline, Sebaceous Lipid Synthesis [2, 7]: 80% | % Inh @ 0.01% Triglycerides, Lipid Accumulation [2, 7]: 75% | % Inh @ 0.01% Triglycerides, Sebaceous Lipid Synthesis [2, 7]: 75% | % Inh @ 0.01% Wax Esters, Lipid Accumulation [2, 7]: 86% | % Inh @ 0.01% Wax Esters, Sebaceous Lipid Synthesis [2, 7]: 86% | % Inh @ 0.05% Cholesterol Ester, Lipid Accumulation [2, 8]: 21% | % Inh @ 0.05% Cholesterol, Lipid Accumulation [2, 8]: 82% | % Inh @ 0.05% Cholesterol, Sebaceous Lipid Synthesis [2, 8]: 82% | % Inh @ 0.05% Squaline, Lipid Accumulation [2, 8]: 73% | % Inh @ 0.05% Squaline, Sebaceous Lipid Synthesis [2, 8]: 90% | % Inh @ 0.05% Triglycerides, Lipid Accumulation [2, 8]: 90% | % Inh @ 0.05% Triglycerides, Sebaceous Lipid Synthesis [2, 8]: 90% | % Inh @ 0.05% Wax Esters, Lipid Accumulation [2, 8]: 93% | % Inh @ 0.05% Wax Esters, Sebaceous Lipid Synthesis [2, 8]: 93% | total sebaceous lipid accumulation and de novo synthesis of sebaceous lipids ([2]; 30 days of topical treatment with 0.05% and 0.01% solution): significantly decreased | % Inh @ 0.01% Squalene [2, 9]: 0% | % Inh @ 0.01% Triglycerides [2, 9]: 0% | % Inh @ 0.01% W/E [2, 9]: 25% | % Inh @ 0.1% Squalene [2, 10]: 70% | % Inh @ 0.1% Triglycerides [2, 10]: 50% | % Inh @ 0.1% W/E [2, 10]: 80% | % Inh @ 0.5% Squalene [2, 11]: 0% | % Inh @ 0.5% Triglycerides [2, 11]: 0% | % Inh @ 0.5% W/E [2, 11]: 10% | lipid synthesis, radioactively labeled lipids separated by HPTLC [3]: inhibition of squalene, cholesterol esters and wax esters | lipid granules in sebocyte cultures, visual ([3]; stained cell cultures): complete disappearance of lipid granules

c1ccc(CNc2nc(-c3ccccc3)[n+](-c3ccccc3)s2)cc1 [Compound 84]
Change in Food Intake 2-6 hrs (%) [4]: −24.5% and −17.8%

α-MSH
EC50 [5]: 3.7 nM | Percent Recovery of whisker movement D9 ([6]; D9): 2.0 ± 2.8% | Percent Recovery of whisker movement D10 ([6]; D10): 24.6 ± 15.8% | Percent Recovery of whisker movement D11 ([6]; D11): 60.1 ± 19.3% | Percent Recovery of whisker movement D12 ([6]; D12): 93.8 ± 14.0% | Percent Recovery of whisker movement D13 ([6]; D13): 98.1 ± 5.3% | Percent Recovery of whisker movement D14 ([6]; D14): 100 ± 0.0%
